Measurements taken from patent US20180016593A1, “HERBICIDE-RESISTANT SUNFLOWER PLANTS, POLYNUCLEOTIDES ENCODING HERBICIDE-RESISTANT ACETOHYDROXYACID SYNTHASE LARGE SUBUNIT PROTEINS, AND METHODS OF USE” (priority 2005, published 2018).
Where “and” joins values, the source holds several entries; their conditions need not be identical. Equal entries are not always repeated. Where two headings read alike, the source gives them in different places.

Tests used:
Format in all cases: in vivo, Helianthus annuus
[1] = test system: sunflower TH12 (Restorer Line, A122T); conditions: 14 DAT
Experimental: (§1) A greenhouse study was conducted to quantify and contrast the imazapir sensivity of the mutants A122T and A205V in different genetic backgrounds at the whole plant level in sunflower. Seeds of the different sunflower lines that were used in this study were obtained under field conditions.
(§2) Seeds were sown in Petri dishes and, after germination, plantlets were transplanted to pots of 10 cm of diameter in a potting media consisting of equal parts of vermiculite, soil and sand. Plants were grown in a greenhouse under natural light conditions supplemented with 400 W sodium halide lamps to provide a 16 hrs daylength. Day/night temperatures were 25 and 20° C., respectively. At the V2 stage 10 plants of each genotype were randomly assigned to each treatment consisting of […] imazapir doses (0, 40, 80, 160, 240, 320, 400 and 480 g ai/ha), and a zero-time biomass determination. Experiment was arranged as a randomized block design with a full factorial (sunflower line×treatment) arrangement of treatments and 10 replications.
(§3) On the day of herbicide application ten plants of each genotype were cut at the cotyledonal node and dried at 60° C. for 48 hrs zero-time for dried weight determination.
(§4) Height was determined as the distance between the cotyledonal node and the apex of each plant. For root biomass determination, each plant was taken from the pot and the potting media was washed out from the roots. Above ground biomass data from each line were converted to biomass accumulation after application by subtracting the appropriate average zero-time biomass from each sample. Dry biomass data were converted to percentages of the untreated control plants within each line to allow direct comparisons between groups. […]

[2] = test system: sunflower TH6 (Hybrid, A122T); conditions: 14 DAT
Experimental: as §1, §2, §3, §4

[3] = test system: sunflower lines carrying the A205V mutation; conditions: 14 DAT; for biomass accumulation, Dif with Control / plant height, Dif with Control / root dry weight, Dif with Control: A205V mean; for biomass accumulation, Mean / root dry weight, Mean / plant height, Mean: six A205V genotypes; for Phytotoxicity Index, Mean: three A205V genotypes
Experimental: as §1, §2, §3, §4

[4] = test system: sunflower TH11 (Hybrid, A122T); conditions: 14 DAT
Experimental: as §1, §2, §3, §4

## CC(C)C1(C)N=C(c2ncccc2C(=O)O)NC1=O (stereo not drawn) [imazapyr]
[1]; 0.5x (40 g ai/ha)
  Phytotoxicity Index: 0.0
  biomass accumulation (above ground dry weight): 100.0 % of untreated plots
  plant height: 100.0 % of untreated plots
  root dry weight: 99.4 % of untreated plots
[1]; 1x (80 g ai/ha)
  Phytotoxicity Index: 0.0
  biomass accumulation (above ground dry weight): 99.1 % of untreated plots
  plant height: 100.0 % of untreated plots
  root dry weight: 100 % of untreated plots
[1]; 2x (160 g ai/ha)
  Phytotoxicity Index: 0.0
  biomass accumulation (above ground dry weight): 97.0 % of untreated plots
  plant height: 101.8 % of untreated plots
  root dry weight: 100 % of untreated plots
[1]; 3x (240 g ai/ha)
  Phytotoxicity Index: 0.0
  biomass accumulation (above ground dry weight): 96.1 % of untreated plots
  plant height: 97.0 % of untreated plots
  root dry weight: 100.0 % of untreated plots
[1]; 4x (320 g ai/ha)
  Phytotoxicity Index: 0.0
  biomass accumulation (above ground dry weight): 84.3 % of untreated plots
  plant height: 92.1 % of untreated plots
  root dry weight: 74.5 % of untreated plots
[1]; 5x (400 g ai/ha)
  Phytotoxicity Index: 0.0
  biomass accumulation (above ground dry weight): 77.5 % of untreated plots
  plant height: 84.8 % of untreated plots
  root dry weight: 65.0 % of untreated plots
[1]; 6x (480 g ai/ha)
  Phytotoxicity Index: 0.5
  biomass accumulation (above ground dry weight): 70.7 % of untreated plots
  plant height: 79.8 % of untreated plots
  root dry weight: 57.8 % of untreated plots
[2]; 0.5x (40 g ai/ha)
  Phytotoxicity Index: 0.5
  biomass accumulation (above ground dry weight): 100 % of untreated plots
  plant height: 99.2 % of untreated plots
  root dry weight: 100 % of untreated plots
[2]; 1x (80 g ai/ha)
  Phytotoxicity Index: 0.5
  biomass accumulation (above ground dry weight): 97.2 % of untreated plots
  plant height: 98.6 % of untreated plots
  root dry weight: 98.1 % of untreated plots
[2]; 2x (160 g ai/ha)
  Phytotoxicity Index: 0.5
  biomass accumulation (above ground dry weight): 97.9 % of untreated plots
  plant height: 100.3 % of untreated plots
  root dry weight: 98.2 % of untreated plots
[2]; 3x (240 g ai/ha)
  Phytotoxicity Index: 0.5
  biomass accumulation (above ground dry weight): 98.2 % of untreated plots
  plant height: 99.8 % of untreated plots
  root dry weight: 79.3 % of untreated plots
[2]; 4x (320 g ai/ha)
  Phytotoxicity Index: 0.5
  biomass accumulation (above ground dry weight): 97.8 % of untreated plots
  plant height: 101.0 % of untreated plots
  root dry weight: 78.4 % of untreated plots
[2]; 5x (400 g ai/ha)
  Phytotoxicity Index: 0.5
  biomass accumulation (above ground dry weight): 85.1 % of untreated plots
  plant height: 87.0 % of untreated plots
  root dry weight: 85.8 % of untreated plots
[2]; 6x (480 g ai/ha)
  Phytotoxicity Index: 0.5
  biomass accumulation (above ground dry weight): 79.5 % of untreated plots
  plant height: 79.6 % of untreated plots
  root dry weight: 57.3 % of untreated plots
[3]; 0.5x (40 g ai/ha)
  biomass accumulation, Dif with Control: 5.5 % of untreated plots
  plant height, Dif with Control: 5.6 % of untreated plots
  root dry weight, Dif with Control: 12.8 % of untreated plots
  biomass accumulation, Mean: 94.5 % of untreated plots
  root dry weight, Mean: 87.2 % of untreated plots
[3]; 1x (80 g ai/ha)
  biomass accumulation, Dif with Control: 17.8 % of untreated plots
  plant height, Dif with Control: 10.8 % of untreated plots
  root dry weight, Dif with Control: 29.2 % of untreated plots
  biomass accumulation, Mean: 82.2 % of untreated plots
  root dry weight, Mean: 70.8 % of untreated plots
[3]; 2x (160 g ai/ha)
  biomass accumulation, Dif with Control: 38.4 % of untreated plots
  plant height, Dif with Control: 30.8 % of untreated plots
  root dry weight, Dif with Control: 49.4 % of untreated plots
  biomass accumulation, Mean: 61.6 % of untreated plots
  plant height, Mean: 69.2 % of untreated plots
  root dry weight, Mean: 50.6 % of untreated plots
  Phytotoxicity Index, Mean: 2.2
[3]; 3x (240 g ai/ha)
  biomass accumulation, Dif with Control: 52.4 % of untreated plots
  plant height, Dif with Control: 49.6 % of untreated plots
  root dry weight, Dif with Control: 60.8 % of untreated plots
  biomass accumulation, Mean: 47.6 % of untreated plots
  plant height, Mean: 50.4 % of untreated plots
  root dry weight, Mean: 39.2 % of untreated plots
  Phytotoxicity Index, Mean: 5.1
[3]; 4x (320 g ai/ha)
  biomass accumulation, Dif with Control: 64.6 % of untreated plots
  plant height, Dif with Control: 66.3 % of untreated plots
  root dry weight, Dif with Control: 68.9 % of untreated plots
  biomass accumulation, Mean: 35.4 % of untreated plots
  plant height, Mean: 33.7 % of untreated plots
  root dry weight, Mean: 31.1 % of untreated plots
  Phytotoxicity Index, Mean: 7.4
[3]; 5x (400 g ai/ha)
  biomass accumulation, Dif with Control: 67.6 % of untreated plots
  plant height, Dif with Control: 68.0 % of untreated plots
  root dry weight, Dif with Control: 69.3 % of untreated plots
  biomass accumulation, Mean: 32.4 % of untreated plots
  plant height, Mean: 32.0 % of untreated plots
  root dry weight, Mean: 30.7 % of untreated plots
  Phytotoxicity Index, Mean: 8.2
[3]; 6x (480 g ai/ha)
  biomass accumulation, Dif with Control: 70.0 % of untreated plots
  root dry weight, Dif with Control: 75.6 % of untreated plots
  biomass accumulation, Mean: 30.0 % of untreated plots
  plant height, Mean: 30.2 % of untreated plots
  root dry weight, Mean: 24.4 % of untreated plots
  Phytotoxicity Index, Mean: 8.2
[3]; 6x (480 g ai/ha), listed as imazapir
  plant height, Dif with Control: 68.9 % of untreated plots and 69.8 % of untreated plots
[4]; 0.5x (40 g ai/ha)
  Phytotoxicity Index: 0.4
  biomass accumulation (above ground dry weight): 96.6 % of untreated plots
  plant height: 100.4 % of untreated plots
  root dry weight: 100 % of untreated plots
[4]; 1x (80 g ai/ha)
  Phytotoxicity Index: 0.4
  biomass accumulation (above ground dry weight): 93.9 % of untreated plots
  plant height: 99.9 % of untreated plots
  root dry weight: 99.0 % of untreated plots
[4]; 2x (160 g ai/ha)
  Phytotoxicity Index: 0.4
  biomass accumulation (above ground dry weight): 81.6 % of untreated plots
  plant height: 92.0 % of untreated plots
  root dry weight: 86.1 % of untreated plots
[4]; 3x (240 g ai/ha)
  Phytotoxicity Index: 0.5
  biomass accumulation (above ground dry weight): 75.8 % of untreated plots
  plant height: 90.5 % of untreated plots
  root dry weight: 81.5 % of untreated plots
[4]; 4x (320 g ai/ha)
  Phytotoxicity Index: 1.0
  biomass accumulation (above ground dry weight): 75.0 % of untreated plots
  plant height: 90.8 % of untreated plots
  root dry weight: 72.6 % of untreated plots
[4]; 5x (400 g ai/ha)
  Phytotoxicity Index: 2.0
  biomass accumulation (above ground dry weight): 60.1 % of untreated plots
  plant height: 84.4 % of untreated plots
  root dry weight: 68.9 % of untreated plots
[4]; 6x (480 g ai/ha)
  Phytotoxicity Index: 2.5
  biomass accumulation (above ground dry weight): 59.6 % of untreated plots
  plant height: 84.4 % of untreated plots
  root dry weight: 45.3 % of untreated plots
